Read-outs that look alike come from different tables or passages of the source.
How the values were obtained:
[1] = Absorption and fluorescence emission spectra in DMF; format: physicochemical; conditions: for ε, extinction coefficient / λA, absorption maximum in the Q-band / λF, fluorescence emission maximum: in DMF
Experimental: An absorption spectrum of 2.475 mL of solvent (water, DMF, or PBS) was taken (i.e., absorption spectrum of baseline); then, 25 μL of stock solution was added to reach the final concentration of 1 μM in the cuvette, and the absorption and emission spectra were taken. Baseline of the solvent was subtracted from the obtained absorption spectrum to get the final absorption spectrum of the sample.

[2] = Fluorescence quantum yield, comparative method; format: physicochemical; conditions: in DMF; ZnPc as reference
Experimental: The fluorescence quantum yields (ΦF) were determined by a comparative method with ZnPc as the reference (ΦF = 0.32 in THF). The ΦF values were calculated using the following formula: ϕFS=ϕFR(F^S/F^R)(1−10^−A^R/1−10^−A^S)(η^S/η^R)^2 where F is the integrated area under the emission spectrum and A is the absorbance at the excitation wavelength. Superscripts R and S indicate the reference and sample, respectively. η stands for the refractive index of the solvent. Absorption in the Q-band was kept below 0.05 to eliminate the inner filter effect. Excitation wavelengths were the same as those used for emission spectra (see above). The emission wavelengths were set to their emission maxima to avoid exceeding the detector limit with stimated error ± 15%.

[3] = Quantum yield of singlet oxygen production, comparative method with DPBF scavenger; format: physicochemical; conditions: in DMF, ZnPc as reference
Experimental: Eight μL of the 100 μM stock solution of the dye in DMF (or DMF + water or water; see above) was added. A xenon lamp (100 W, ozone free XE DC short arc lamp, New port) was used to irradiate the sample while stirring. The incident light was filtered through a water filter (6 cm) and cut off filter OG530 eliminating heat and light under 523 nm, respectively. […] The decrease of DPBF in solution with irradiation time was monitored at 415 nm. The values of ΦΔ of the dyes were calculated by the following equation: φΔS=φΔ[…] is the slope of the plot of the dependence of ln([…] 0 and A t being the absorbances of the DPBF at 415 nm before irradiation and after irradiation time t, respectively. I aT is the total amount of light absorbed by the dye sample. Superscripts R and S indicate the reference and sample, respectively. I aT is calculated as a sum of intensities of the absorbed light I a at wavelengths from 523 to 850 nm (step 0.5 nm). Light under 523 nm is completely filtered by an OG530 filter, and light above 850 nm is not absorbed by the studied dye sample. I a at a given wavelength is calculated using Beer-Lambert'[…]) where I 0 is transmittance of the filter at the given wavelength and A is the absorbance of the dye at this wavelength. All experiments were performed three times, and the data presented is the mean value of the three obtained results with estimated error ± 10%.

[4] = Log P, partition between n-octanol and PBS; format: physicochemical
Experimental: 400 μL portion of n-octanol and 400 μL of PBS buffer were mixed in a plastic Eppendorf vial. Then, 20 μL of the 100 μM stock solution of the sample (see above) was added to this mixture, vortexed for 5 min at rt, and then centrifuged for 10 min (10 000 rpm, rt). 50 μL of each of these layers was taken into 2.5 mL of DMF in a quartz cuvette, and their emission spectra (excitation wavelengths in Table ) were recorded. The log P value was then computed using the area under the curve of the emission spectra of n-octanol (F oct) and PBS buffer (F PBS) layers as follows: logP=log(Foct/FPBS) Triplicate measurements were performed, and the data reported are the mean of the obtained results.

[5] = molecular target: bovine serum albumin (BSA) (Bos taurus, UniProt P02769); experiment: Interaction with bovine serum albumin (absorption and emission spectra in PBS); format: binding; conditions: 1 μM Pc in PBS, BSA 17.5, 35 and 100 μM
Chain of bovine serum albumin (BSA) (P02769 25-607): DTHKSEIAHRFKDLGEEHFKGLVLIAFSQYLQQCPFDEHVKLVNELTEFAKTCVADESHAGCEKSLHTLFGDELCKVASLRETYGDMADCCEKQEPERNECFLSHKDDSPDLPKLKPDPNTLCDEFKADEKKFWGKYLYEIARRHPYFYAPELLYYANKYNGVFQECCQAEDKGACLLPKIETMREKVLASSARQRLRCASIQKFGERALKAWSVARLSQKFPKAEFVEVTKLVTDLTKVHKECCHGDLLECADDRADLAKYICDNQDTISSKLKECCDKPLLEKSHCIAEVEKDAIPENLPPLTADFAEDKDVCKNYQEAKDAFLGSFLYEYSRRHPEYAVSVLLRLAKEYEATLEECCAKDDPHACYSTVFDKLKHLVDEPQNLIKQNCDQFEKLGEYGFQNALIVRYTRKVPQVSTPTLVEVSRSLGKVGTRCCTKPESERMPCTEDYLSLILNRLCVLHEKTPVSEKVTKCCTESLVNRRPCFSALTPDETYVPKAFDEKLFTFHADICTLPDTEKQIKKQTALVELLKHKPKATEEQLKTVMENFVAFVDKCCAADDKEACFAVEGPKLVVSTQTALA

[6] = system: MCF-7 (human breast adenocarcinoma); experiment: Photodynamic activity (phototoxicity, neutral red uptake) on MCF-7; format: cell-based; conditions: 12 h incubation, Xe-lamp 15 min, λ > 570 nm, 11.2 J/cm^2; mean ± SD; t.w. = this work
Experimental: (§1) Detailed in vitro studies involving subcellular localization and determination of the EC50 in three different cell lines (human cervical carcinoma–HeLa, human breast adenocarcinoma–MCF-7, and human skin melanoma–SK-MEL-28) were performed. A broadband light source (ozone-free 450 W Xe-lamp, Newport) equipped with the long-pass filter Schott OG570 was used (12.4 mW/cm^2, 15 min, 11.2 J/cm^2).
(§2) For the cytotoxicity experiments (phototoxicity), cells were seeded at 100 μL per well into 96-well plates (TPP, Switzerland) at a density of 7.5 × 10^3 (HeLa) or 1.0 × 10^4 (MCF-7 and SK-MEL-28) cells per well. Cells were left to grow for 24 h (until they reached confluency) in a controlled environment of a CO2 incubator (37 °C, 5% CO2 atmosphere, constant high humidity). Subsequently, studied compounds were added in a wide concentration range and incubated with the cells for 12 h. Cells were washed; fresh cell culture medium was added, and the cells were irradiated using a 450 W Xe lamp (Newport, USA). The lamp was equipped with a long pass filter (Newport OG570) and an 8 cm water filter (λ > 570 nm, 12.4 mW/cm^2, 15 min, 11.2 J/cm^2). Cellular viability was assessed after an additional 24 h by the neutral red (NR; Sigma, Merck, USA) uptake assay. At least three independent experiments, each in triplicate, were performed. The soluble NR was measured at λ = 540 nm using a Tecan Infinite 200 M plate reader (Tecan, Austria). The viability of each experimental group was expressed as the percentage of the untreated cells (100% viability) after subtraction of the signal from cells treated with a lethal dose of hydrogen peroxide (0% viability). […] EC50 values were calculated, and graphs were created by using GraphPad Prism 10.3.1 (Graph Pad software, USA).

[7] = system: SK-MEL-28 (human skin melanoma); experiment: Photodynamic activity (phototoxicity, neutral red uptake) on SK-MEL-28; format: cell-based; conditions: 12 h incubation, Xe-lamp 15 min, λ > 570 nm, 11.2 J/cm^2; mean ± SD; t.w. = this work
Experimental: as §1, §2

[8] = Fluorescence lifetime in DMF; format: physicochemical
Source text: 1 Photophysical Data of Investigated Derivatives in DMF ^a | column: τF1/ns; τF2/ns

[9] = system: HeLa (human cervical carcinoma); conditions: ref number not given, cited from earlier work
[10] = partition coefficient between 1-octanol and PBS

| SMILES | ε, extinction coefficient [1] | λA, absorption maximum in the Q-band [1] [nm] | λF, fluorescence emission maximum [1] [nm] | ΦF, fluorescence quantum yield [2] | ΦΔ, quantum yield of singlet oxygen production [3] | Log P [4, 10] | Interaction with BSA: disaggregation/monomerization and changes in absorption and fluorescence emission spectra [5] | EC50 [6] [nM] | EC50 [7] [nM] | τF1, fluorescence lifetime (relative amplitude in brackets) [8] | quenching of excited states upon BSA addition (decrease in Q-band maximum and fluorescence intensity) [5] | EC50 ([9]; 12 h incubation, Xe-lamp 15 min, λ > 570 nm, 11.2 J/cm^2, mean ± SD, determined previously under the same conditions at the same workplace and published, read-out: EC50 (nM) HeLa) [nM] | τF2, fluorescence lifetime (relative amplitude in brackets) [8] | EC50 ([9]; same irradiation conditions, previously published per Table 2, read-out: EC50 (HeLa)) [nM] | blueshift of the Q-band vs corresponding Pc analogue ([1]; pyrazine analogs vs A4Zn and N6Zn, DMF) [nm] | Log P [4] |
| --- | --- | --- | --- | --- | --- | --- | --- | --- | --- | --- | --- | --- | --- | --- | --- | --- |
| O=S(=O)([O-])c1ccc(Oc2cccc3c2C2=Cc4c5cccc(Oc6ccc(S(=O)(=O)[O-])c7cccnc67)c5c5[n]4[Zn][n]4c(c6cccc(Oc7ccc(S(=O)(=O)[O-])c8cccnc78)c6c4=CC3=N2)=CC2=NC(=C5)c3cccc(Oc4ccc(S(=O)(=O)[O-])c5cccnc45)c32)c2ncccc12.[Na+].[Na+].[Na+].[Na+] [A8Zn] | 197 610 M^–1cm^–1 | 696 | 708 | 0.26 | 0.69 | –3.64 | complete | 2470 ± 810 | 1200 ± 280 | – | – | – | – | – | – | – |
| O=S(=O)([O-])c1ccc(Oc2ccc3c(c2)C2=Cc4c5ccc(Oc6ccc(S(=O)(=O)[O-])c7cccnc67)cc5c5[n]4[Zn][n]4c(c6ccc(Oc7ccc(S(=O)(=O)[O-])c8cccnc78)cc6c4=CC3=N2)=CC2=NC(=C5)c3ccc(Oc4ccc(S(=O)(=O)[O-])c5cccnc45)cc32)c2ncccc12.[Na+].[Na+].[Na+].[Na+] [A6Zn] | 122 420 M^–1cm^–1 | 681 | 692 | 0.28 | 0.58 | –2.89 | partial | – | – | 3.14 ns | – | – | – | – | – | – |
| O=C([O-])c1cc(C(=O)[O-])cc(-c2nc3c(nc2-c2cc(C(=O)[O-])cc(C(=O)[O-])c2)C2=Nc4c5nc(-c6cc(C(=O)[O-])cc(C(=O)[O-])c6)c(-c6cc(C(=O)[O-])cc(C(=O)[O-])c6)nc5c5[n]4[Zn][n]4c(c6nc(-c7cc(C(=O)[O-])cc(C(=O)[O-])c7)c(-c7cc(C(=O)[O-])cc(C(=O)[O-])c7)nc6c4=NC4=NC(=N5)c5nc(-c6cc(C(=O)[O-])cc(C(=O)[O-])c6)c(-c6cc(C(=O)[O-])cc(C(=O)[O-])c6)nc54)=NC3=N2)c1.[Na+].[Na+].[Na+].[Na+].[Na+].[Na+].[Na+].[Na+].[Na+].[Na+].[Na+].[Na+].[Na+].[Na+].[Na+].[Na+] [A5Zn] | 138 740 M^–1cm^–1 | 659 | 675 | 0.03 | 0.21 | –3.27 | slight bathochromic shift in the Q-band accompanied by partial quenching of the excited states | – | – | – | significant | 5700 ± 1100 | – | – | – | – |
| Cc1cc(OCc2cn(CCOCCOCCO)nn2)c(Oc2cc3c(cc2Oc2c(OCc4cn(CCOCCOCCO)nn4)cc(C)cc2OCc2cn(CCOCCOCCO)nn2)C2=Nc4c5cc(Oc6c(OCc7cn(CCOCCOCCO)nn7)cc(C)cc6OCc6cn(CCOCCOCCO)nn6)c(Oc6c(OCc7cn(CCOCCOCCO)nn7)cc(C)cc6OCc6cn(CCOCCOCCO)nn6)cc5c5[n]4[Zn][n]4c(c6cc(Oc7c(OCc8cn(CCOCCOCCO)nn8)cc(C)cc7OCc7cn(CCOCCOCCO)nn7)c(Oc7c(OCc8cn(CCOCCOCCO)nn8)cc(C)cc7OCc7cn(CCOCCOCCO)nn7)cc6c4=NC4=NC(=N5)c5cc(Oc6c(OCc7cn(CCOCCOCCO)nn7)cc(C)cc6OCc6cn(CCOCCOCCO)nn6)c(Oc6c(OCc7cn(CCOCCOCCO)nn7)cc(C)cc6OCc6cn(CCOCCOCCO)nn6)cc54)=NC3=N2)c(OCc2cn(CCOCCOCCO)nn2)c1 [N6Zn] | 237 520 M^–1cm^–1 | 681 | 690 | 0.26 | 0.46 | – | – | – | – | 1.04 (3%) ns | – | – | 3.17 (97%) ns | 69700 | – | – |
| C[n+]1cccc(Oc2ccc3c(c2)C2=NC3=Nc3c4cc(Oc5ccc[n+](C)c5)ccc4c4[n]3[Zn][n]3c(c5ccc(Oc6ccc[n+](C)c6)cc5c3=NC3=NC(=N4)c4cc(Oc5ccc[n+](C)c5)ccc43)=N2)c1 [C5Zn] | – | – | – | – | – | – | slight decrease in the absorption band (without a shift in the spectrum) but was accompanied by a slight increase in the fluorescence intensity | – | – | – | – | – | – | – | – | – |
| Cc1cc(OCc2cn(CCOCCOCCO)nn2)c(Oc2nc3c(nc2Oc2c(OCc4cn(CCOCCOCCO)nn4)cc(C)cc2OCc2cn(CCOCCOCCO)nn2)C2=Nc4c5nc(Oc6c(OCc7cn(CCOCCOCCO)nn7)cc(C)cc6OCc6cn(CCOCCOCCO)nn6)c(Oc6c(OCc7cn(CCOCCOCCO)nn7)cc(C)cc6OCc6cn(CCOCCOCCO)nn6)nc5c5[n]4[Zn][n]4c(c6nc(Oc7c(OCc8cn(CCOCCOCCO)nn8)cc(C)cc7OCc7cn(CCOCCOCCO)nn7)c(Oc7c(OCc8cn(CCOCCOCCO)nn8)cc(C)cc7OCc7cn(CCOCCOCCO)nn7)nc6c4=NC4=NC(=N5)c5nc(Oc6c(OCc7cn(CCOCCOCCO)nn7)cc(C)cc6OCc6cn(CCOCCOCCO)nn6)c(Oc6c(OCc7cn(CCOCCOCCO)nn7)cc(C)cc6OCc6cn(CCOCCOCCO)nn6)nc54)=NC3=N2)c(OCc2cn(CCOCCOCCO)nn2)c1 [N7Zn] | 195 490 M^–1cm^–1 | 629 | 641 | 0.18 | 0.58 | – | – | – | – | 0.74 (5%) ns | – | – | 2.45 (95%) ns | – | 35 | –1.60 |
